US4057530A, “2-Phenyl-indole derivatives and process for preparing the same” (priority 1974, dated 1977)

Experiments:
[1] = Acute toxicity by oral route in mice (LD50); format: in vivo; settings: mouse, in vivo, gummy suspension
Description: (§1) The study of the acute toxicity of the stabilizers listed below was carried out by determining the dose of substance which provoked the death of 50% of the treated animals (LD50). A gummy suspension of the substance under study was administered by oral route to groups of at least ten mice and the following results were observed: […]

[2] = system: mice; test: Acute toxicity by oral route in mice (LD50); format: in vivo; settings: LD50 study
Description: as §1

[3] = Static thermostability of stabilized resin, simplified method (GARDNER sub-scale), Compound A; settings: 210° C; for Colouration given to the polymer: 0 and 3 min
Description: (§2) The stabilizing power of the substances of the invention was studied from two points of view:
(§3) These studies were performed with six different formulae of vinyl resins (hereinafter referred to as Compounds).
(§4) The different compounds were mixed and calendered in a mixer of which the cylinders were heated to 160° C. The rigid sheets so obtained were then heated in an oven to a temperature between 180° C and 215° C, until incipient carbonization.
(§5) A stove with rotating drums, ventilated and equipped with a thermostat was used for this operation. In the trials described hereunder, the behaviour of a sheet containing the stabilizer to be tested was compared to that of a sheet of the same formula but containing 2-phenyl-indole as stabilizer.
2. It is also possible to use a simplified method which is more rapid and with which valid results are also obtained: a reference scale is drawn up with sheets of thermally treated polyvinyl chloride, of which the colourations have been definitely determined in GARDNER degrees as above. A GARDNER sub-scale is thus obtained in polyvinyl chloride sheets which can be directly compared to the sheets to be tested without using the comparator.
Finally, trials were carried out with Stabilizers 15, 16 and 17 and with 2-phenyl-indole. Compound A was used and the temperature was 210° C.

[4] = Static thermostability of stabilized resin, GARDNER Scale Comparator, Compound A; settings: 185° C
Description: as §2, §3, §4, §5
1. The colouration of the sheets, of which samples were removed from the stove at fixed intervals was compared to a standard scale of colouration, known as the GARDNER Scale, and expressed in terms of the reference figures of the GARDNER Scale.
Comparisons were made with a GARDNER Scale Comparator which contains 18 filters of coloured glass and which offers the possibility of observing by transparency and in a limited field of view both the sheet and the reference filters.

| SMILES | LD50 [1] [mg/kg] | Toxic symptoms [2] | Static thermostability compared with 2-phenyl-indole [3] | Colouration of sheet (GARDNER sub-scale) ([3]; 0 min) | Colouration of sheet (GARDNER sub-scale) ([3]; 3 min) | Colouration of sheet (GARDNER sub-scale) ([3]; 6 min) | Colouration of sheet (GARDNER sub-scale) ([3]; 9 min) [GARDNER degrees] | Colouration of sheet (GARDNER sub-scale) ([3]; 12 min) [GARDNER degrees] | Colouration of sheet (GARDNER sub-scale) ([3]; 15 min) | Colouration of sheet (GARDNER sub-scale) ([3]; 18 min) | other results |
| --- | --- | --- | --- | --- | --- | --- | --- | --- | --- | --- | --- |
| Oc1ccc(-c2cc3ccccc3[nH]2)cc1 [Stabilizer 20, 2-(4'-hydroxy-phenyl)-indole] | > 3000 | none | markedly superior to 2-phenyl-indole | 1 GARDNER degrees | 1 GARDNER degrees | 2 GARDNER degrees | 4 | 9 | 11 GARDNER degrees | – | – |
| c1ccc(-c2ccc(-c3cc4ccccc4[nH]3)cc2)cc1 [Stabilizer 26, 2(4'-phenyl-phenyl)-indole] | – | – | markedly superior to 2-phenyl-indole | 2 GARDNER degrees | 2 GARDNER degrees | 3 GARDNER degrees | 4 | 5 | 12 GARDNER degrees | 14 GARDNER degrees | – |
| O=C(Nc1ccccc1-c1cc2ccccc2[nH]1)c1ccccc1 [Stabilizer 25, 2-(2'-N-benzoylamino-phenyl)-indole] | – | – | slightly superior to 2-phenyl-indole | 2 GARDNER degrees | 2 GARDNER degrees | 4 GARDNER degrees | 6 | 9 | 12 GARDNER degrees | burnt | – |
| CCOC(=O)COc1ccc(-c2cc3ccccc3[nH]2)cc1 [Stabilizer 13, 2-(4'-carbethoxymethoxy-phenyl)-indole] | – | – | markedly superior to 2-phenyl-indole | 2 GARDNER degrees | 2 GARDNER degrees | 3 GARDNER degrees | 3 | 9 | 11 GARDNER degrees | burnt | – |
| Nc1ccc(-c2cc3ccccc3[nH]2)cc1 [Stabilizer 22, 2-(4'-amino-phenyl)-indole] | – | – | developed less rapidly than that due to 2-phenyl-indole | 2 GARDNER degrees | 3 GARDNER degrees | 3 GARDNER degrees | 4 | 6 | 12 GARDNER degrees | burnt | Colouration given to the polymer [3]: relatively strong yellow colouration |
| Nc1ccccc1-c1cc2ccccc2[nH]1 [Stabilizer 23, 2-(2'-amino-phenyl)-indole] | > 2000 | none | superior to 2-phenyl-indole | pink | pink | pink | 4 | 6 | 12 GARDNER degrees | – | – |
| CSc1ccc(-c2cc3ccccc3[nH]2)cc1 [Stabilizer 3, 2-(4'-methylthio-phenyl)-indole] | > 3000 | none | markedly superior to 2-phenyl-indole | 1 GARDNER degrees | 1 GARDNER degrees | 2 GARDNER degrees | 3 | 8 | 10 GARDNER degrees | – | – |
| O=C(O)COc1ccc(-c2cc3ccccc3[nH]2)cc1 [Stabilizer 12, 2-(4'-carboxymethoxy-phenyl)-indole] | – | – | developed less rapidly than those due to 2-phenyl-indole | 2 GARDNER degrees | 2 GARDNER degrees | 3 GARDNER degrees | – | – | brown | burnt | – |
| Sc1ccc(-c2cc3ccccc3[nH]2)cc1 [Stabilizer 1, 2-(4'-mercapto-phenyl)-indole] | > 2000 | none | superiority of Stabilizer 1 over 2-phenyl-indole | 1 GARDNER degrees | 2 GARDNER degrees | 2.5 GARDNER degrees | 7 | 11 | 12 GARDNER degrees | – | – |
| O=C(Oc1ccc(-c2cc3ccccc3[nH]2)cc1)c1ccccc1 [Stabilizer 6, 2-(4'-benzoyloxy-phenyl)-indole] | > 4000 | none | – | – | – | – | – | – | – | – | – |
| Nc1cccc(-c2cc3ccccc3[nH]2)c1 [Stabilizer 11, 2-(3'-amino-phenyl)-indole] | – | – | developed less rapidly than that due to 2-phenyl-indole | 3 GARDNER degrees | 3 GARDNER degrees | 4 GARDNER degrees | 5 | 10 | 12 GARDNER degrees | burnt | Colouration given to the polymer [3]: relatively intense yellow colouration |
| CCOC(=O)C(C)(C)Oc1ccc(-c2cc3ccccc3[nH]2)cc1 [Stabilizer 5, 2-(4'-carbethoxyisopropyloxy-phenyl)-indole] | > 3000 | none | markedly superior to 2-phenyl-indole | – | – | – | – | – | – | – | – |
| CC(C)Sc1ccc(-c2cc3ccccc3[nH]2)cc1 [Stabilizer 17, 2-(4'-isopropylthio-phenyl)-indole] | – | – | very rapidly found to be superior to 2-phenyl-indole | 1 GARDNER degrees | 1 GARDNER degrees | 2 GARDNER degrees | 4 | 10 | 13 GARDNER degrees | burnt | Colouration of sheet (GARDNER Scale) ([4]; 0 min): 1 GARDNER degrees; Colouration of sheet (GARDNER Scale) ([4]; 6 min): 1 GARDNER degrees; Colouration of sheet (GARDNER Scale) ([4]; 12 min): 2 GARDNER degrees; Colouration of sheet (GARDNER Scale) ([4]; 18 min): 4 GARDNER degrees; Colouration of sheet (GARDNER Scale) ([4]; 24 min): 9 GARDNER degrees; Colouration of sheet (GARDNER Scale) ([4]; 30 min): 11 GARDNER degrees; Colouration of sheet (GARDNER Scale) ([4]; 36 min): 12 GARDNER degrees; Colouration of sheet (GARDNER Scale) ([4]; 42 min): 13 GARDNER degrees; Colouration of sheet (GARDNER Scale) ([4]; 48 min): 14 GARDNER degrees; Colouration of sheet (GARDNER Scale) ([4]; 54 min): burnt |
| CC(=O)Oc1ccc(-c2cc3ccccc3[nH]2)cc1 [Stabilizer 4, 2-(4'-acetoxy-phenyl)-indole] | > 3000 | none | – | – | – | – | – | – | – | – | – |
| CC(=O)Nc1ccc(-c2cc3ccccc3[nH]2)cc1 [Stabilizer 14, 2-(4'-N-acetylamino-phenyl)-indole] | – | – | slightly superior to 2-phenyl-indole | 2 GARDNER degrees | 2 GARDNER degrees | 3 GARDNER degrees | 4 | 8 | 12 GARDNER degrees | burnt | – |
